# In publication PMC4216211 (Journal of Medicinal Chemistry, 2014):
# Several values for one entry are separate records, joined by “and”; a condition that tells them apart may be missing. Identical values can stand only once.
# Assays:
# TSPO in rat brain cortex = settings: read-out: IC50, inhibition of [3H]1; cited from earlier work
# rat brain TSPO = rat brain TSPO (Rattus norvegicus, UniProt P16257); format: binding; settings: for LipE: pKi (rat) minus clogD
# human leukocyte LAB TSPO = human leukocyte LAB TSPO (Homo sapiens, UniProt P30536); test: Ligand binding affinity to human leukocyte LAB TSPO
# human leukocyte HAB TSPO = human leukocyte HAB TSPO (Homo sapiens, UniProt P30536, T147A); test: Ligand binding affinity to human leukocyte HAB TSPO
# [1] = system: human leukocyte HAB and LAB TSPO; test: Human TSPO genotype sensitivity, Ki in LAB versus HAB leukocytes; format: binding; settings: for (LAB Ki)/(HAB Ki): genotype sensitivity, ratio of Ki; for genotype sensitivity in words: LAB versus HAB TSPO
# Chain of rat brain TSPO (P16257 whole entry): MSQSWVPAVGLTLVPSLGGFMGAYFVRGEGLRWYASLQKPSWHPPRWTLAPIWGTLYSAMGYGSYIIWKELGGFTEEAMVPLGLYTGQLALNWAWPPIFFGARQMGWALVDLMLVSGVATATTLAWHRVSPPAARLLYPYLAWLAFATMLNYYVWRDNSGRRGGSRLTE
# Chain of human leukocyte LAB TSPO (P30536 whole entry): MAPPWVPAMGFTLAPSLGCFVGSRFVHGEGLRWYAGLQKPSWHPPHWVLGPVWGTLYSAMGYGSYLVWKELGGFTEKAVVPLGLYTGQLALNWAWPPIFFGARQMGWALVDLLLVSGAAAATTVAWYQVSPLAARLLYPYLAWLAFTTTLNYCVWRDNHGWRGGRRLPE
# Chain of human leukocyte HAB TSPO (P30536 whole entry T147A): as the sequence (P30536 whole entry) above, with T147A counted along it
SMILES,Ki (rat brain TSPO) [nM],LipE (rat brain TSPO),Ki (human leukocyte LAB TSPO) [nM],Ki (human leukocyte HAB TSPO) [nM],(LAB Ki)/(HAB Ki) [1],further results
"CCN(CC)C(=O)C(C)Cc1cc(-c2ccccc2)nc2ccccc12 (stereo not shown) [10a, N,N-Diethyl-2-methyl-3-(2-phenylquinolin-4-yl)propanamide]",2.1 ± 0.6,4.4 ± 0.1,,,,IC50 (TSPO in rat brain cortex): 13.7 nM
"CCN(CC)C(=O)CCc1cc(-c2ccccc2)nc2ccccc12 [10b, N,N-diethyl-3-(2-phenylquinolin-4-yl)propanamide]",32 ± 11,2.7 ± 0.2,,,,
"CCC(Cc1cc(-c2ccccc2)nc2ccccc12)C(=O)N(CC)CC (stereo not shown) [10c, N,N-diethyl-2-[(2-phenylquinolin-4-yl)methyl]butanamide]",14 ± 6,2.6 ± 0.2,,,,
"CN1CCC(Cc2cc(-c3ccccc3)nc3ccccc23)C1=O (stereo not shown) [10d, 1-methyl-3-[(2-phenylquinolin-4-yl)methyl]pyrrolidin-2-one]",53 ± 22,3.6 ± 0.2,,,,
"CC(Cc1cc(-c2ccccc2)nc2ccccc12)C(=O)N(C)C (stereo not shown) [10e, N,N,2-trimethyl-3-(2-phenylquinolin-4-yl)propanamide]",40 ± 8,2.8 ± 0.1,,,,
"CCN(C)C(=O)C(C)Cc1cc(-c2ccccc2)nc2ccccc12 (stereo not shown) [10f, N-ethyl-N,2-dimethyl-3-(2-phenylquinolin-4-yl)propanamide]",9 ± 2,3.8 ± 0.1,,,,
"CCCN(C)C(=O)C(C)Cc1cc(-c2ccccc2)nc2ccccc12 (stereo not shown) [10g, N,2-dimethyl-3-(2-phenylquinolin-4-yl)-N-propylpropanamide]",1.2 ± 0.4,4.2 ± 0.1,,,,
"CCCCN(C)C(=O)C(C)Cc1cc(-c2ccccc2)nc2ccccc12 (stereo not shown) [10h, N-butyl-N,2-dimethyl-3-(2-phenylquinolin-4-yl)propanamide]",0.4 ± 0.2,3.9 ± 0.2,89 ± 3,1 ± 0.6,89 ± 50,
"CCCCCN(C)C(=O)C(C)Cc1cc(-c2ccccc2)nc2ccccc12 (stereo not shown) [10i, N,2-dimethyl-N-pentyl-3-(2-phenylquinolin-4-yl)propanamide]",0.6 ± 0.1,2.6 ± 0.1,,,,
"CC(Cc1cc(-c2ccccc2)nc2ccccc12)C(=O)N(C)C(C)C (stereo not shown) [10j, N,2-dimethyl-3-(2-phenylquinolin-4-yl)-N-(propan-2-yl)propanamide]",2.9 ± 0.9,4.3 ± 0.1,973 ± 409,15 ± 2,64 ± 28,
"CC(C)CN(C)C(=O)C(C)Cc1cc(-c2ccccc2)nc2ccccc12 (stereo not shown) [10l, N,2-dimethyl-N-(2-methylpropyl)-3-(2-phenylquinolin-4-yl)propanamide]",5 ± 2,3.3 ± 0.1,185 ± 81,6 ± 2,32 ± 18,
"CC(Cc1cc(-c2ccccc2)nc2ccccc12)C(=O)N(C)c1ccccc1 (stereo not shown) [10m, N,2-dimethyl-N-phenyl-3-(2-phenylquinolin-4-yl)propanamide]",0.9 ± 0.2,3.5 ± 0.1,53 ± 22,1.9 ± 0.5,27 ± 14,
"CC(Cc1cc(-c2ccccc2)nc2ccccc12)C(=O)N(C)Cc1ccccc1 (stereo not shown) [10n, N-benzyl-N,2-dimethyl-3-(2-phenylquinolin-4-yl)propanamide]",5 ± 3,1.8 ± 0.2,,,,
"CC(Cc1cc(-c2ccccc2)nc2ccccc12)C(=O)N(C)c1ccccn1 (stereo not shown) [10o, N,2-dimethyl-3-(2-phenylquinolin-4-yl)-N-(pyridin-2-yl)propanamide]",1.6 ± 0.6,3.6 ± 0.2,119 ± 56,4 ± 1,30 ± 18,
"CC(Cc1cc(-c2ccccc2)nc2ccccc12)C(=O)N(C)c1cccnc1 (stereo not shown) [10p, N,2-dimethyl-3-(2-phenylquinolin-4-yl)-N-(pyridin-3-yl)propanamide]",10 ± 3,2.7 ± 0.1,,,,
"CC(Cc1cc(-c2ccccc2)nc2ccccc12)C(=O)N(C)c1ccncc1 (stereo not shown) [10q, N,2-dimethyl-3-(2-phenylquinolin-4-yl)-N-(pyridin-4-yl)propanamide]",106 ± 24,1.7 ± 0.1,,,,
"CC(Cc1cc(-c2ccccc2)nc2ccccc12)C(=O)N(C)c1ccccc1F (stereo not shown) [10r, N-(2-fluorophenyl)-N,2-dimethyl-3-(2-phenylquinolin-4-yl)propanamide]",0.9 ± 0.2,3.5 ± 0.1,,,,

SMILES,Ki (rat brain TSPO) [nM],LipE (rat brain TSPO),Ki (human leukocyte LAB TSPO) [nM],Ki (human leukocyte HAB TSPO) [nM],(LAB Ki)/(HAB Ki) [1],further results
"CC(Cc1cc(-c2ccccc2)nc2ccccc12)C(=O)N(C)c1cccc(F)c1 (stereo not shown) [10s, N-(3-fluorophenyl)-N,2-dimethyl-3-(2-phenylquinolin-4-yl)propanamide]",0.8 ± 0.2,3.5 ± 0.1,,,,
"CC(Cc1cc(-c2ccccc2)nc2ccccc12)C(=O)N(C)c1ccc(F)cc1 (stereo not shown) [10t, N-(4-fluorophenyl)-N,2-dimethyl-3-(2-phenylquinolin-4-yl)propanamide]",0.4 ± 0.1,4.1 ± 0.2,,,,
"CC(Cc1cc(-c2ccccc2Cl)nc2ccccc12)C(=O)N(C)C(C)C (stereo not shown) [10u, 3-[2-(2-chlorophenyl)quinolin-4-yl)-N,2-dimethyl-N-(propan-2-yl)propanamide]",22 ± 6,3.2 ± 0.1,,,,
"CC(Cc1cc(-c2cccc(Cl)c2)nc2ccccc12)C(=O)N(C)C(C)C (stereo not shown) [10v, 3-[2-(3-chlorophenyl)quinolin-4-yl)-N,2-dimethyl-N-(propan-2-yl)propanamide]",4 ± 1,3.7 ± 0.1,,,,
"CC(Cc1cc(-c2ccc(Cl)cc2)nc2ccccc12)C(=O)N(C)C(C)C (stereo not shown) [10w, 3-[2-(4-chlorophenyl)quinolin-4-yl)-N,2-dimethyl-N-(propan-2-yl)propanamide]",4 ± 1,3.6 ± 0.1,,,,
"CC(Oc1cc(-c2ccccc2)nc2ccccc12)C(=O)N(C)c1ccccc1 (stereo not shown) [15a, N-Methyl-N-phenyl-2-[(2-phenylquinolin-4-yl)oxy]propanamide]",0.07 ± 0.004,5.42 ± 0.03,1.3 ± 0.2,0.5 ± 0.2,2.5 and 2.5 ± 0.9,
"CC(Oc1ccnc2ccccc12)C(=O)N(C)c1ccccc1 (stereo not shown) [15b, N-methyl-N-phenyl-2-(quinolin-4-yloxy)propanamide]",5.7 ± 0.5,5.29 ± 0.04,66 ± 22,3.3 ± 0.9,20 ± 9,rat TSPO affinity in words (rat brain TSPO): low nanomolar range; HAB binding affinity in words (human leukocyte HAB TSPO): low nanomolar
"CC(Oc1ccnc(-c2ccccc2)c1)C(=O)N(C)c1ccccc1 (stereo not shown) [15c, N-methyl-N-phenyl-2-[(2-phenylpyridin-4-yl)oxy]propanamide]",3.3 ± 0.6,5.3 ± 0.3,62 ± 11,2 ± 0.6,31 ± 11,rat TSPO affinity in words (rat brain TSPO): low nanomolar range; HAB binding affinity in words (human leukocyte HAB TSPO): low nanomolar
"CC(Oc1cc(-c2ccccn2)nc2ccccc12)C(=O)N(C)c1ccccc1 (stereo not shown) [22a, N-Methyl-N-phenyl-2-{[2-(pyridin-2-yl)quinolin-4-yl]oxy}propanamide]",0.1 ± 0.05,5.9 ± 0.2,1.4 ± 0.5,1.4 ± 0.2,1.0 ± 0.4,"genotype sensitivity in words [1]: insensitive; Ki ([1]; read-out: human TSPO genotypes Ki, abstract, one value for the human genotypes): 1.4 nM"
"CC(Oc1cc(-c2cccnc2)nc2ccccc12)C(=O)N(C)c1ccccc1 (stereo not shown) [22b, N-methyl-N-phenyl-2-{[2-(pyridin-3-yl)quinolin-4-yl]oxy}propanamide]",0.2 ± 0.03,5.6 ± 0.1,12 ± 3,0.9 ± 0.09,13 ± 4,rat TSPO affinity in words (rat brain TSPO): subnanomolar
"CC(Oc1cc(-c2ccncc2)nc2ccccc12)C(=O)N(C)c1ccccc1 (stereo not shown) [22c, N-methyl-N-phenyl-2-{[2-(pyridin-4-yl)quinolin-4-yl]oxy}propanamide]",0.22 ± 0.02,5.60 ± 0.04,7 ± 3,1 ± 0.5,7 ± 5,genotype sensitivity in words [1]: much less sensitive
"CCN(CC)C(=O)[C@H](C)Cc1cc(-c2ccccc2)nc2ccccc12 [(R)-10a, (R)-N,N-Diethyl-2-methyl-3-(2-phenylquinolin-4-yl)propanamide]",0.9 ± 0.09,4.72 ± 0.04,743 ± 190,10 ± 2,76 ± 27,fold lower affinity to HAB TSPO than to rat TSPO (human leukocyte HAB TSPO): about 10 -fold; fold lower affinity for LAB TSPO than for HAB TSPO [1]: about 76 -fold
"CCN(CC)C(=O)[C@@H](C)Cc1cc(-c2ccccc2)nc2ccccc12 [(S)-10a, (S)-N,N-Diethyl-2-methyl-3-(2-phenylquinolin-4-yl)propanamide]",73 ± 36,2.9 ± 0.1,,,,
"CCC(C)N(C)C(=O)c1cc2ccccc2c(-c2ccccc2Cl)n1 (stereo not shown) [compound 1, 1-(2-chlorophenyl)-N-methyl-N-(1-methylpropyl)-3-isoquinolinecarboxamide, reference compound]",,,,,,genotype sensitivity in words [1]: low genotype sensitivity
"CC(Sc1cc(-c2ccccc2)nc2ccccc12)C(=O)N(C)c1ccccc1 (stereo not shown) [compound 12, N-Methyl-N-phenyl-2-[(2-phenylquinolin-4-yl)sulfanyl]propanamide]",0.39 ± 0.04,4.10 ± 0.05,26 ± 5,2.5 ± 0.6,10 ± 3,
"CC(Nc1cc(-c2ccccc2)nc2ccccc12)C(=O)N(C)c1ccccc1 (stereo not shown) [compound 14, N-Methyl-N-phenyl-2-[(2-phenylquinolin-4-yl)amino]propanamide]",0.19 ± 0.01,5.62 ± 0.03,4 ± 1,0.44 ± 0.08,9 ± 3,
